From patent US10934286B2, “Heterocyclic sulfones as ROR gamma modulators” (BRISTOL-MYERS SQUIBB COMPANY, priority 2016, dated 2021)
pIC50: −log10 of the molar value. Counter-ions that a name gives are not always drawn.

The molecules below were run against T1, RORγ receptor (Homo sapiens, UniProt P51449) (assay: General RORγ Gal4 reporter assay (inverse agonist activity, inhibition of luminescence)). Conditions: Gal4-luciferase reporter in Jurkat cells stably over-expressing hRORγ LBD; overnight incubation; 40 μM to 0.67 nM.
T1 construct: Jurkat pEx/Gal/hRORγ CLBD/HYG pG51uc/blast; expressed in transfected cells
T1 sequence (P51449 269-508 limits assumed): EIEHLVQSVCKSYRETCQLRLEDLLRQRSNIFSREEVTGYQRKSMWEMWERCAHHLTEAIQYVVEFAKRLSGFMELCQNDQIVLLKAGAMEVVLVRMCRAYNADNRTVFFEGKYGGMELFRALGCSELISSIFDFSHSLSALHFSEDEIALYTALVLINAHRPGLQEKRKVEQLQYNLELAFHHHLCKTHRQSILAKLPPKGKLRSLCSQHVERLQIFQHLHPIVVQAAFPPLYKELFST
Type: cell-based
Procedure: General RORγ Gal4 Reporter Assay Inverse agonist activity of potential ligands to RORγ was measured by inhibition of luminescence in a Gal4-luciferase reporter assay in Jurkat cells.
The following day, cells were lysed with 10 μL of Steady-Glo Luciferase Assay System (Promega Cat. No. EZ550), and analyzed immediately. IC50 values were determined.
For `C[C@H]1C[C@H](C(=O)O)CC[C@H]1C(=O)N1CCC2(S(=O)(=O)c3ccc(F)cc3)c3ncc(C(F)(C(F)(F)F)C(F)(F)F)cc3CCC12` (single isomer, unassigned) [Example 23, trifluoroacetate], the pIC50 was 6.50. For `O=C1N[C@H](C(=O)N2CCC3(S(=O)(=O)c4cccc(F)c4)c4ccc(C(F)(C(F)(F)F)C(F)(F)F)nc4CCC23)[C@H]2C[C@@H]12` (single isomer, unassigned) [Example 34, trifluoroacetate], the pIC50 was 7.21. `O=C([C@@H]1C[C@@H](F)C(=O)N1CCO)N1CCC2(S(=O)(=O)c3ccc(F)cc3)c3ncc(C(F)(C(F)(F)F)C(F)(F)F)cc3CCC12` (single isomer, unassigned) [Example 36] was tested, and the pIC50 was 6.96. For `N#CCCN1C(=O)CC[C@H]1C(=O)N1CCC2(S(=O)(=O)c3ccc(F)cc3)c3cnc(OCc4ccccc4)cc3CCC12` (single isomer, unassigned) [Example 38], the pIC50 was 5.37. Work on `N#CCCN1C(=O)CC[C@H]1C(=O)N1CCC2(S(=O)(=O)c3ccc(F)cc3)c3ccc(OCc4c(Cl)cccc4Cl)nc3CCC12` (single isomer, unassigned) [Example 39] yielded a pIC50 of 7.82. With `N#CCCN1C(=O)CC[C@H]1C(=O)N1CCC2(S(=O)(=O)c3ccc(F)cc3)c3ccc(C(F)(C(F)(F)F)C(F)(F)F)nc3CCC12` (single isomer, unassigned) [Example 42] the pIC50 was 7.37. `CC(C)(O)CN1C(=O)[C@H](F)C[C@H]1C(=O)N1CCC2(S(=O)(=O)c3ccc(F)cc3)c3ccc(C(F)(C(F)(F)F)C(F)(F)F)nc3CCC12` (single isomer, unassigned) [Example 43] showed a pIC50 of 7.51. In the case of `CC(C)(O)CN1C(=O)[C@H](F)C[C@@H]1C(=O)N1CCC2(S(=O)(=O)c3ccc(F)cc3)c3ccc(C(F)(C(F)(F)F)C(F)(F)F)nc3CCC12` (single isomer, unassigned) [Example 44], the pIC50 was 6.77. `CC(C)(O)CN1C(=O)[C@@H]2C[C@@H]2[C@H]1C(=O)N1CCC2(S(=O)(=O)c3cccc(F)c3)c3cnc(C(F)(C(F)(F)F)C(F)(F)F)cc3CCC12` (single isomer, unassigned) [Example 51] was tested, and the pIC50 was 7.66. In the case of `CC(C)(O)CN1C(=O)CCN1C(=O)N1CCC2(S(=O)(=O)c3ccc(F)cc3)c3ccc(C(F)(C(F)(F)F)C(F)(F)F)nc3CCC12` (single isomer, unassigned) [Example 54, 1-(9b-((4-fluorophenyl)sulfonyl)-7-(perfluoropropan-2-yl)-2,3,3a,4,5,9b-hexahydro-1H-pyrrolo[3,2-f]quinoline-3-carbonyl)-2-(2-hydroxy-2-methylpropyl)pyrazolidin-3-one], the pIC50 was 7.80. Molecule `C[C@H]1C[C@H](C(N)=O)CC[C@H]1C(=O)N1CCC2(S(=O)(=O)c3ccc(F)cc3)c3ncc(C(F)(C(F)(F)F)C(F)(F)F)cc3CCC12` (single isomer, unassigned) [Example 59] has a pIC50 of 6.23. `O=C(N1CCC2(S(=O)(=O)c3ccccc3)c3ccc(OCc4c(Cl)cccc4Cl)nc3CCC12)C(F)(F)F` (single isomer, unassigned) [Example 61] was tested, and the pIC50 was 6.10. `O=C(N1CCC2(S(=O)(=O)c3ccccc3)c3ccc(OCc4c(Cl)cccc4Cl)nc3CCC12)C(F)(F)F` (single isomer, unassigned) [Example 62] showed a pIC50 of 5.61. With `[2H]C([2H])([2H])N1C(=O)[C@H](F)C[C@H]1C(=O)N1CCC2(S(=O)(=O)c3ccc(F)cc3)c3ncc(C(F)(C(F)(F)F)C(F)(F)F)cc3CCC12` (some centres unmarked) [Example 2] the pIC50 was 7.16. `O=C([C@@H]1CCC(=O)N1Cc1ccc(F)cc1)N1CCC2(S(=O)(=O)c3ccc(F)cc3)c3ncc(C(F)(C(F)(F)F)C(F)(F)F)cc3CCC12` (some centres unmarked) [Example 3] gave a pIC50 of 7.21. Molecule `O=C(O)[C@H]1CC[C@H](C(=O)N2CCC3(S(=O)(=O)c4ccc(F)cc4)c4ncc(C(F)(C(F)(F)F)C(F)(F)F)cc4CCC23)CC1` (some centres unmarked) [Example 4] has a pIC50 of 6.79. `NC(=O)[C@H]1CC[C@H](C(=O)N2CCC3(S(=O)(=O)c4ccc(F)cc4)c4ncc(C(F)(C(F)(F)F)C(F)(F)F)cc4CCC23)CC1` (some centres unmarked) [Example 5] was tested, and the pIC50 was 7.11. For `O=C(O)C12CCC(C(=O)N3CCC4(S(=O)(=O)c5ccc(F)cc5)c5ncc(C(F)(C(F)(F)F)C(F)(F)F)cc5CCC34)(CC1)CC2` (centres unmarked) [Example 6], the pIC50 was 7.27. With `NC(=O)C12CCC(C(=O)N3CCC4(S(=O)(=O)c5ccc(F)cc5)c5ncc(C(F)(C(F)(F)F)C(F)(F)F)cc5CCC34)(CC1)CC2` (centres unmarked) [Example 7] the pIC50 was 7.08. Work on `O=C(C1CCS(=O)(=O)CC1)N1CCC2(S(=O)(=O)c3ccc(F)cc3)c3ncc(C(F)(C(F)(F)F)C(F)(F)F)cc3CCC12` (centres unmarked) [Example 8] yielded a pIC50 of 7.04. With `O=C(O)C1CC2(C1)CC(C(=O)N1CCC3(S(=O)(=O)c4ccc(F)cc4)c4ncc(C(F)(C(F)(F)F)C(F)(F)F)cc4CCC13)C2` (centres unmarked) [Example 9] the pIC50 was 7.06. With `O=C(CC1(O)CCS(=O)(=O)C1)N1CCC2(S(=O)(=O)c3ccc(F)cc3)c3ccc(C(F)(C(F)(F)F)C(F)(F)F)nc3CCC12` (centres unmarked) [Example 10] the pIC50 was 7.48. For `O=C(CC1(O)CCS(=O)(=O)C1)N1CCC2(S(=O)(=O)c3ccccc3)c3ccc(C(F)(C(F)(F)F)C(F)(F)F)nc3CCC12` (centres unmarked) [Example 11], the pIC50 was 7.68. `O=C(C1CCS(=O)(=O)CC1)N1CCC2(S(=O)(=O)c3ccccc3)c3ccc(C(F)(C(F)(F)F)C(F)(F)F)nc3CCC12` (centres unmarked) [Example 12] gave a pIC50 of 8.05. `N#CCCN1C(=O)CC[C@H]1C(=O)N1CCC2(S(=O)(=O)c3cccc(F)c3)c3cnc(C(F)(C(F)(F)F)C(F)(F)F)cc3CCC12` (some centres unmarked) [Example 14] showed a pIC50 of 8.40. `O=C(C1CCS(=O)(=O)CC1)N1CCC2(S(=O)(=O)c3cccc(F)c3)c3cnc(C(F)(C(F)(F)F)C(F)(F)F)cc3CCC12` (centres unmarked) [Example 15] gave a pIC50 of 8.10. `O=C(O)C12CCC(C(=O)N3CCC4(S(=O)(=O)c5ccccc5)c5ccc(C(F)(C(F)(F)F)C(F)(F)F)nc5CCC34)(CC1)CC2` (centres unmarked) [Example 16] gave a pIC50 of 8.22. `CC(C)(O)C(=O)N1CCC2(S(=O)(=O)c3ccccc3)c3ccc(C(F)(C(F)(F)F)C(F)(F)F)nc3CCC12` (centres unmarked) [Example 17] was tested, and the pIC50 was 7.35. In the case of `CC(C)(O)CC(=O)N1CCC2(S(=O)(=O)c3ccccc3)c3ccc(C(F)(C(F)(F)F)C(F)(F)F)nc3CCC12` (centres unmarked) [Example 18], the pIC50 was 7.52. With `N#CCCN1C(=O)CC[C@H]1C(=O)N1CCC2(S(=O)(=O)c3ccccc3)c3ccc(C(F)(C(F)(F)F)C(F)(F)F)nc3CCC12` (some centres unmarked) [Example 19] the pIC50 was 7.89. In the case of `N#CCCN1C(=O)CC[C@H]1C(=O)N1CCC2(S(=O)(=O)c3cccc(F)c3)c3ccc(C(F)(C(F)(F)F)C(F)(F)F)nc3CCC12` (some centres unmarked) [Example 21], the pIC50 was 7.96. For `O=C(C1CCS(=O)(=O)CC1)N1CCC2(S(=O)(=O)c3cccc(F)c3)c3ccc(C(F)(C(F)(F)F)C(F)(F)F)nc3CCC12` (centres unmarked) [Example 22], the pIC50 was 8.05. `O=C(O)[C@H]1CC[C@H](C(=O)N2CCC3(S(=O)(=O)c4cccc(F)c4)c4ccc(C(F)(C(F)(F)F)C(F)(F)F)nc4CCC23)CC1` (some centres unmarked) [Example 24] gave a pIC50 of 7.82. With `C[C@H]1C[C@H](C(=O)O)CC[C@H]1C(=O)N1CCC2(S(=O)(=O)c3cccc(F)c3)c3ccc(C(F)(C(F)(F)F)C(F)(F)F)nc3CCC12` (some centres unmarked) [Example 25] the pIC50 was 7.92. With `O=C(O)[C@H]1CC[C@H](C(=O)N2CCC3(S(=O)(=O)c4cccc(F)c4)c4cnc(C(F)(C(F)(F)F)C(F)(F)F)cc4CCC23)CC1` (some centres unmarked) [Example 26] the pIC50 was 7.89. `C[C@H]1C[C@H](C(=O)O)CC[C@H]1C(=O)N1CCC2(S(=O)(=O)c3cccc(F)c3)c3cnc(C(F)(C(F)(F)F)C(F)(F)F)cc3CCC12` (some centres unmarked) [Example 27] gave a pIC50 of 7.68. In the case of `O=C(O)[C@H]1CC[C@H](C(=O)N2CCC3(S(=O)(=O)c4ccccc4)c4ccc(C(F)(C(F)(F)F)C(F)(F)F)nc4CCC23)CC1` (some centres unmarked) [Example 28], the pIC50 was 8.10. `C[C@H]1C[C@H](C(=O)O)CC[C@H]1C(=O)N1CCC2(S(=O)(=O)c3ccccc3)c3ccc(C(F)(C(F)(F)F)C(F)(F)F)nc3CCC12` (some centres unmarked) [Example 29] showed a pIC50 of 7.89. Molecule `C[C@H]1C[C@H](C(=O)O)CC[C@H]1C(=O)N1CCC2(S(=O)(=O)c3ccc(F)cc3)c3cnc(C(F)(C(F)(F)F)C(F)(F)F)cc3CCC12` (some centres unmarked) [Example 30] has a pIC50 of 7.29. With `C[C@H]1C[C@H](C(=O)O)CC[C@H]1C(=O)N1CCC2(S(=O)(=O)c3ccc(F)cc3)c3ccc(C(F)(C(F)(F)F)C(F)(F)F)nc3CCC12` (some centres unmarked) [Example 32] the pIC50 was 8.30. Work on `O=C(O)[C@H]1CC[C@H](C(=O)N2CCC3(S(=O)(=O)c4ccc(F)cc4)c4ccc(C(F)(C(F)(F)F)C(F)(F)F)nc4CCC23)CC1` (some centres unmarked) [Example 33] yielded a pIC50 of 8.10. `O=C1N[C@H](C(=O)N2CCC3(S(=O)(=O)c4cccc(F)c4)c4cnc(C(F)(C(F)(F)F)C(F)(F)F)cc4CCC23)[C@H]2C[C@@H]12` (some centres unmarked) [Example 35] showed a pIC50 of 5.48. For `CC(C)(CO)CN1C(=O)[C@H](F)C[C@H]1C(=O)N1CCC2(S(=O)(=O)c3cccc(F)c3)c3ccc(C(F)(C(F)(F)F)C(F)(F)F)nc3CCC12` (some centres unmarked) [Example 37], the pIC50 was 8.05. Work on `O=C(O)[C@H]1CC[C@H](C(=O)N2CCC3(S(=O)(=O)c4ccc(F)cc4)c4ccc(OCc5c(Cl)cccc5Cl)nc4CCC23)CC1` (some centres unmarked) [Example 40] yielded a pIC50 of 7.92. `CC(C)(O)CN1C(=O)[C@H](F)C[C@@H]1C(=O)N1CCC2(S(=O)(=O)c3ccc(F)cc3)c3cnc(C(F)(C(F)(F)F)C(F)(F)F)cc3CCC12` (some centres unmarked) [Example 45] gave a pIC50 of 6.28. With `CC(C)(O)CN1C(=O)[C@H](F)C[C@@H]1C(=O)N1CCC2(S(=O)(=O)c3cccc(F)c3)c3ccc(C(F)(C(F)(F)F)C(F)(F)F)nc3CCC12` (some centres unmarked) [Example 46] the pIC50 was 6.39. `CC(C)(O)CN1C(=O)[C@H](F)C[C@H]1C(=O)N1CCC2(S(=O)(=O)c3ccc(F)cc3)c3cnc(C(F)(C(F)(F)F)C(F)(F)F)cc3CCC12` (some centres unmarked) [Example 47] gave a pIC50 of 7.54.
